Assays:
[1] = biological target: T1, recombinant guanylate cyclase reporter cell line (Rattus norvegicus, UniProt P19686+P20595); assay: Action on recombinant guanylate cyclase reporter cell line; type: cell-based
T1 construct: expressed in transfected cells
T1 sequence (P20595 1-619): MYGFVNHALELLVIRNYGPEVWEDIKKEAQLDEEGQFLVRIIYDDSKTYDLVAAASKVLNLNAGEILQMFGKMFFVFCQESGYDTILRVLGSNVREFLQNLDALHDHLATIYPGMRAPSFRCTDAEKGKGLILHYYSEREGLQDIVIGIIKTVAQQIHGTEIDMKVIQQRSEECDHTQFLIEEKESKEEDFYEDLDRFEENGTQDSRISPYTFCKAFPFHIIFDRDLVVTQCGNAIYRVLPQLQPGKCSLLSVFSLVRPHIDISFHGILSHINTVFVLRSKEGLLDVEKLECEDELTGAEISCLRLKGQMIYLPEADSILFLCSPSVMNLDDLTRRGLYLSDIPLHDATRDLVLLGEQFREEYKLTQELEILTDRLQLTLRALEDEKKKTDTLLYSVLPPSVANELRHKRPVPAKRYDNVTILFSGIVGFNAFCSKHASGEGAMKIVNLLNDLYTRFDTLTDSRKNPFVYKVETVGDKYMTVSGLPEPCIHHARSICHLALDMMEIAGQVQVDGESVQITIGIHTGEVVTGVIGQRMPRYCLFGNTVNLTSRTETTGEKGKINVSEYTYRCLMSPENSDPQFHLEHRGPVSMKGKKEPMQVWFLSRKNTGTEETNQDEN
T1 sequence (P19686 1-690): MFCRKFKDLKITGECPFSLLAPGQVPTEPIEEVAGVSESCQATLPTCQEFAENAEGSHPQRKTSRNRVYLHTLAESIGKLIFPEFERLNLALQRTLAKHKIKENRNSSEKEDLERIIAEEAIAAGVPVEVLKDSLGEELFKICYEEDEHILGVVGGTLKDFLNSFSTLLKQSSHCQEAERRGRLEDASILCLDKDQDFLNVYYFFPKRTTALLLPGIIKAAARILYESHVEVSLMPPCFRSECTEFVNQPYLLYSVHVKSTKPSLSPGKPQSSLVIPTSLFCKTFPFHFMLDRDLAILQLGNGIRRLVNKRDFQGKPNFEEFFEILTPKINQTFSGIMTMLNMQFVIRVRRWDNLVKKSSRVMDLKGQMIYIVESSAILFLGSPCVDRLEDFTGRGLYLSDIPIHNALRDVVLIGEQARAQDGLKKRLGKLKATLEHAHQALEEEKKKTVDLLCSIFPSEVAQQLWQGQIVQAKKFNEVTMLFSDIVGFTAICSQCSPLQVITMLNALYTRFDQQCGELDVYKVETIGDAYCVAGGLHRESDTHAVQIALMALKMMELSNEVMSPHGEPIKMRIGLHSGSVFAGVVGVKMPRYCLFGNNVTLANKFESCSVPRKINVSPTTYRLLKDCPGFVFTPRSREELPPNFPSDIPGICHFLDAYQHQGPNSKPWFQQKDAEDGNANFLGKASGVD
Protocol: B-2. Action on Recombinant Guanylate Cyclase Reporter Cell Line
The cellular action of the compounds according to the invention is determined on a recombinant guanylate cyclase reporter cell line, as described in F. Wunder et al., Anal. Biochem. 339, 104-112 (2005).

aorta rings = assay: Vessel-relaxing action in vitro (aorta rings, phenylephrine contraction); details: Oryctolagus cuniculus, concentration required to reduce phenylephrine-induced contraction of rabbit aorta rings by 50%
Outline: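 Rabbit aortic rings 1.5 mm wide were held under preload in carbogen-gassed Krebs-Henseleit at 37 °C and contracted with cumulative phenylephrine. Test substance was added in rising doses on successive passes, each compared with the preceding control contraction. IC50 is the concentration that halves contraction, with 0.1% DMSO in the bath.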

[2] = biological target: T2, human phosphodiesterase 5 (PDE-5) (Homo sapiens, UniProt O76074); assay: Inhibition of human phosphodiesterase 5 (PDE-5), SPA assay; type: biochemical; details: PDE-5 preparation from human platelets, [8-3H]cGMP substrate
T2 construct: PDE-5 preparations are obtained from human platelets by lysis; from tissue; host or cells: human platelets
Outline: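 PDE-5 partially purified from human platelets by Mono Q chromatography, diluted so under 70% of [8-3H]cGMP (0.025 μCi) converted. Compounds at 4 μM to 0.0018 μM final, Tris-HCl pH 7.5 with MgCl2, 60 min at room temperature. Yttrium SPA beads stop reaction; IC50 from concentration–inhibition plots.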

Structure (SMILES) | MEC (minimal effective concentration) [1] [μm] | IC50 (aorta rings) [µM] | IC50 [2] [µM]
CC1(C)C(=O)Nc2nc(-c3nn(Cc4ccccc4F)c4ncccc34)nc(N3CC(C(F)(F)F)CCC3=O)c21 (stereo not drawn) [Example 91, 2-[1-(2-Fluorobenzyl)-1H-pyrazolo[3,4-b]pyridin-3-yl]-5,5-dimethyl-4-[2-oxo-5-(trifluoromethyl)piperidin-1-yl]-5,7-dihydro-6H-pyrrolo[2,3-d]pyrimidin-6-one] | 0.03 | 0.517 | 0.6
CC1C(=O)NCCN1c1nc(-c2nn(Cc3ccccc3F)c3ncccc23)nc2c1C(C)(C)C(=O)N2 (stereo not drawn) [Example 92, 2-[1-(2-Fluorobenzyl)-1H-pyrazolo[3,4-b]pyridin-3-yl]-5,5-dimethyl-4-(2-methyl-3-oxopiperazin-1-yl)-5,7-dihydro-6H-pyrrolo[2,3-d]pyrimidin-6-one] | 0.3 | 0.52 | 0.17
CC1(C)C(=O)Nc2nc(-c3nn(Cc4ccccc4F)c4ncccc34)nc(N3CCS(=O)(=O)CC3)c21 [Example 93, 4-(1,1-Dioxidothiomorpholin-4-yl)-2-[1-(2-fluorobenzyl)-1H-pyrazolo[3,4-b]pyridin-3-yl]-5,5-dimethyl-5,7-dihydro-6H-pyrrolo[2,3-d]pyrimidin-6-one] | 0.3 | 0.984 | 0.12
CC1(C)C(=O)Nc2nc(-c3nn(Cc4ccccc4F)c4ncccc34)nc(N[C@H]3CC[C@H](O)CC3)c21 [Example 95, 2-[1-(2-Fluorobenzyl)-1H-pyrazolo[3,4-b]pyridin-3-yl]-4-[(trans-4-hydroxycyclohexyl)amino]-5,5-dimethyl-5,7-dihydro-6H-pyrrolo[2,3-d]pyrimidin-6-one] | 0.1 | 0.228 | 0.004
CC1(C)C(=O)Nc2nc(-c3nn(Cc4ccccc4F)c4ncc(F)cc34)nc(NCC3CC3(F)F)c21 (stereo not drawn) [Example 97, 4-{[(2,2-Difluorocyclopropyl)methyl]amino}-2-[5-fluoro-1-(2-fluorobenzyl)-1H-pyrazolo[3,4-b]pyridin-3-yl]-5,5-dimethyl-5,7-dihydro-6H-pyrrolo[2,3-d]pyrimidin-6-one] | 0.1 | 1.35 | 0.063
CC1(C)C(=O)Nc2nc(-c3nn(Cc4ccccc4F)c4ncc(F)cc34)nc(NCC3(O)CC3)c21 [Example 98, 2-[5-Fluoro-1-(2-fluorobenzyl)-1H-pyrazolo[3,4-b]pyridin-3-yl]-4-{[(1-hydroxycyclopropyl)methyl]amino}-5,5-dimethyl-5,7-dihydro-6H-pyrrolo[2,3-d]pyrimidin-6-one] | 0.01 | 0.214 | 0.004
O=C1Nc2nc(-c3nn(Cc4ccccc4F)c4ncc(F)cc34)nc(NCCC(F)(F)F)c2C12CCOC2 (stereo not drawn) [Example 100, 2′-[5-Fluoro-1-(2-fluorobenzyl)-1H-pyrazolo[3,4-b]pyridin-3-yl]-4′-[(3,3,3-trifluoropropyl)amino]-4,5-dihydrospiro[furan-3,5′-pyrrolo[2,3-d]pyrimidin]-6′(7′H)-one] | 0.3 | 4.76 | 2.8
CC1(C)C(=O)Nc2nc(-c3nn(Cc4ccccc4F)c4ncc(F)cc34)nc(O)c21 [Example 102, 2-[5-Fluoro-1-(2-fluorobenzyl)-1H-pyrazolo[3,4-b]pyridin-3-yl]-4-hydroxy-5,5-dimethyl-5,7-dihydro-6H-pyrrolo[2,3-d]pyrimidin-6-one] | 1 | 0.156 | 0.074
CC1(C)C(=O)Nc2nc(-c3nn(Cc4ccccc4F)c4ncc(F)cc34)nc(N3CCC(F)(F)CC3)c21 [Example 103, 4-(4,4-Difluoropiperidin-1-yl)-2-[5-fluoro-1-(2-fluorobenzyl)-1H-pyrazolo[3,4-b]pyridin-3-yl]-5,5-dimethyl-5,7-dihydro-6H-pyrrolo[2,3-d]pyrimidin-6-one] | 1 | 0.551 | 0.4
CC1(C)C(=O)Nc2nc(-c3nn(Cc4ccccc4F)c4ncc(F)cc34)nc(N3CC(O)C3)c21 [Example 104, 2-[5-Fluoro-1-(2-fluorobenzyl)-1H-pyrazolo[3,4-b]pyridin-3-yl]-4-(3-hydroxyazetidin-1-yl)-5,5-dimethyl-5,7-dihydro-6H-pyrrolo[2,3-d]pyrimidin-6-one] | 0.1 | 0.482 | 0.08
CC1(C)C(=O)Nc2nc(-c3nn(Cc4ccccc4F)c4ncccc34)nc(N3CC(N)C3)c21 [Example 107, 4-(3-Aminoazetidin-1-yl)-2-[1-(2-fluorobenzyl)-1H-pyrazolo[3,4-b]pyridin-3-yl]-5,5-dimethyl-5,7-dihydro-6H-pyrrolo[2,3-d]pyrimidin-6-one] | 1 | 0.7 | 0.1
CC1(C)C(=O)Nc2nc(-c3nn(Cc4ccccc4F)c4ncccc34)nc(O)c21 [Example 109, 2-[1-(2-Fluorobenzyl)-1H-pyrazolo[3,4-b]pyridin-3-yl]-4-hydroxy-5,5-dimethyl-5,7-dihydro-6H-pyrrolo[2,3-d]pyrimidin-6-one] | 0.03 | 0.081 | 0.05

More lines, in order of falling IC50 (aorta rings), values ahead:

MEC (minimal effective concentration) [1] [μm] | IC50 (aorta rings) [µM] | IC50 [2] [µM] | Structure (SMILES)
0.3 | 10 | 0.44 | CC1(C)C(=O)Nc2nc(-c3nn(Cc4ccccc4F)c4ncc(F)cc34)nc(NCC3CC3(C)C)c21 (stereo not drawn) [Example 99, 4-{[(2,2-Dimethylcyclopropyl)methyl]amino}-2-[5-fluoro-1-(2-fluorobenzyl)-1H-pyrazolo[3,4-b]pyridin-3-yl]-5,5-dimethyl-5,7-dihydro-6H-pyrrolo[2,3-d]pyrimidin-6-one]
0.3 | 1.62 | 0.32 | CCCOc1nc(-c2nn(Cc3ccccc3F)c3ncccc23)nc2c1C(C)(C)C(=O)N2 [Example 111, 2-[1-(2-Fluorobenzyl)-1H-pyrazolo[3,4-b]pyridin-3-yl]-5,5-dimethyl-4-propoxy-5,7-dihydro-6H-pyrrolo[2,3-d]pyrimidin-6-one]
0.3 | 0.478 | 0.98 | CC1(C)C(=O)Nc2nc(-c3nn(Cc4ccccc4F)c4ncccc34)nc(N3CC(N4CCCC4)C3)c21 [Example 105, 2-[1-(2-Fluorobenzyl)-1H-pyrazolo[3,4-b]pyridin-3-yl]-5,5-dimethyl-4-[3-(pyrrolidin-1-yl)azetidin-1-yl]-5,7-dihydro-6H-pyrrolo[2,3-d]pyrimidin-6-one]
0.3 | 0.444 | 0.025 | Cc1ncc2c(-c3nc(NCCC(F)(F)F)c4c(n3)NC(=O)C4(C)C)nn(Cc3ccccc3F)c2n1 [Example 108, 2-[1-(2-Fluorobenzyl)-6-methyl-1H-pyrazolo[3,4-d]pyrimidin-3-yl]-5,5-dimethyl-4-[(3,3,3-trifluoropropyl)amino]-5,7-dihydro-6H-pyrrolo[2,3-d]pyrimidin-6-one]
0.1 | 0.277 | 0.14 | CC(=O)NC1CCN(c2nc(-c3nn(Cc4ccccc4F)c4ncccc34)nc3c2C(C)(C)C(=O)N3)C1 (stereo not drawn) [Example 94, N-(1-{2-[1-(2-Fluorobenzyl)-1H-pyrazolo[3,4-b]pyridin-3-yl]-5,5-dimethyl-6-oxo-6,7-dihydro-5H-pyrrolo[2,3-d]pyrimidin-4-yl}pyrrolidin-3-yl)acetamide]

Source: patent US8859569B2, “Substituted annellated pyrimidines and use thereof” (Bayer Pharma Aktiengesellschaft, priority 2011, dated 2014)
